Assay results taken from ChEMBL document CHEMBL1201862, “PubChem BioAssay data set” (2004).
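Test compounds were applied to cells in 96-well plates for 48 hours at 5 doses. Abbreviation: GI50, concentration required for 50% inhibition of growth.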 The source made the active and inactive calls. Rule as the data show it: active = GI50 up to about 1.1 µM and inactive = higher.

Columns and labels:
Assay in all cases: NCI-60 cell line screen, 48 h
TK-10 = system: TK-10
MOLT-4 = system: MOLT-4
SF-295 = system: SF-295
SN12C = system: SN12C
MCF7 = system: MCF7
T47D = system: T47D
HCC 2998 = system: HCC 2998
UO-31 = system: UO-31
OVCAR-8 = system: OVCAR-8
OVCAR-4 = system: OVCAR-4
SNB-75 = system: SNB-75
NCI-H460 = system: NCI-H460
A549 = system: A549
Hs-578T = system: Hs-578T
HCT-15 = system: HCT-15
OVCAR-5 = system: OVCAR-5
CCRF-CEM = system: CCRF-CEM
SK-OV-3 = system: SK-OV-3
UACC-257 = system: UACC-257
SR = system: SR
RPMI-8226 = system: RPMI-8226
HT-29 = system: HT-29
NCI-H23 = system: NCI-H23
SK-MEL-2 = system: SK-MEL-2
MDA-MB-231 = system: MDA-MB-231
NCI/ADR-RES = system: NCI/ADR-RES
SNB-19 = system: SNB-19
KM12 = system: KM12
786-0 = system: 786-0
EKVX = system: EKVX
MDA-N = system: MDA-N
HCT-116 = system: HCT-116
SW-620 = system: SW-620
NCI-H522 = system: NCI-H522
ACHN = system: ACHN
DU-145 = system: DU-145
COLO 205 = system: COLO 205
BT-549 = system: BT-549
M14 = system: M14
SK-MEL-5 = system: SK-MEL-5
HOP-62 = system: HOP-62
RXF 393 = system: RXF 393
HOP-92 = system: HOP-92
MDA-MB-435 = system: MDA-MB-435
K562 = system: K562
CAKI-1 = system: CAKI-1
PC-3 = system: PC-3
Malme-3M = system: Malme-3M
NCI-H226 = system: NCI-H226
UACC-62 = system: UACC-62
SK-MEL-28 = system: SK-MEL-28
SF-268 = system: SF-268
U-251 = system: U-251
LOX IMVI = system: LOX IMVI
IGROV-1 = system: IGROV-1
HL-60 = system: HL-60
OVCAR-3 = system: OVCAR-3
A498 = system: A498
SF-539 = system: SF-539

COc1ccc(CC2OC3(CCCCC3)CC3CCCCN32)cc1 (centres undefined) was tested, and the GI50 (TK-10) was > 100 µM (inactive), the GI50 (MOLT-4) was 75.9 µM (inactive) and the GI50 (SF-295) was > 100 µM (inactive). The GI50 (SN12C) was > 100 µM (inactive), the GI50 (MCF7) was 72.9 µM (inactive) and the GI50 (T47D) was > 100 µM (inactive). The GI50 (HCC 2998) was > 100 µM (inactive), the GI50 (UO-31) was > 100 µM (inactive) and the GI50 (OVCAR-8) was 40.9 µM (inactive). For the same compound, the GI50 (OVCAR-4) was > 100 µM (inactive), the GI50 (SNB-75) was 91.2 µM (inactive) and the GI50 (NCI-H460) was > 100 µM (inactive). For the same compound, the GI50 (A549) was > 100 µM (inactive), the GI50 (Hs-578T) was 36.7 µM (inactive) and the GI50 (HCT-15) was greater than 100 µM. The GI50 (OVCAR-5) was > 100 µM (inactive), the GI50 (CCRF-CEM) was 47 µM (inactive) and the GI50 (SK-OV-3) was > 100 µM (inactive). The GI50 (UACC-257) was > 100 µM (inactive), the GI50 (SR) was 28.8 µM (inactive) and the GI50 (RPMI-8226) was 23.4 µM (inactive). For the same compound, the GI50 (HT-29) was 57.4 µM (inactive), the GI50 (NCI-H23) was > 100 µM (inactive) and the GI50 (SK-MEL-2) was > 100 µM (inactive). The GI50 (MDA-MB-231) was 10.3 µM (inactive), the GI50 (NCI/ADR-RES) was 50.1 µM (inactive) and the GI50 (SNB-19) was > 100 µM (inactive). For the same compound, the GI50 (KM12) was > 100 µM (inactive), the GI50 (786-0) was > 100 µM (inactive) and the GI50 (EKVX) was > 100 µM (inactive). For the same compound, the GI50 (MDA-N) was 52.6 µM (inactive), the GI50 (HCT-116) was 43.8 µM (inactive) and the GI50 (SW-620) was 39.4 µM (inactive). For the same compound, the GI50 (NCI-H522) was > 100 µM (inactive), the GI50 (ACHN) was > 100 µM (inactive) and the GI50 (DU-145) was > 100 µM (inactive). The GI50 (COLO 205) was > 100 µM (inactive), the GI50 (BT-549) was > 100 µM (inactive) and the GI50 (M14) was 76.6 µM (inactive). The GI50 (SK-MEL-5) was 49.2 µM (inactive), the GI50 (HOP-62) was > 100 µM (inactive) and the GI50 (RXF 393) was > 100 µM (inactive). For the same compound, the GI50 (HOP-92) was 98.9 µM (inactive), the GI50 (MDA-MB-435) was 50 µM (inactive) and the GI50 (K562) was 27.1 µM (inactive). For the same compound, the GI50 (CAKI-1) was > 100 µM (inactive), the GI50 (PC-3) was > 100 µM (inactive) and the GI50 (Malme-3M) was > 100 µM (inactive). The GI50 (NCI-H226) was 53 µM (inactive), the GI50 (UACC-62) was > 100 µM (inactive) and the GI50 (SK-MEL-28) was > 100 µM (inactive). For the same compound, the GI50 (SF-268) was > 100 µM (inactive), the GI50 (U-251) was > 100 µM (inactive) and the GI50 (LOX IMVI) was 48.3 µM (inactive). The GI50 (IGROV-1) was > 100 µM (inactive), the GI50 (HL-60) was > 100 µM (inactive) and the GI50 (OVCAR-3) was 46 µM (inactive).
CC(=O)OCC1OC(n2c(Br)nc3c2c(=O)n(C)c(=O)n3C)C(OC(C)=O)C1OC(C)=O (centres undefined) was tested, and the GI50 (TK-10) was > 100 µM (inactive), the GI50 (MOLT-4) was > 100 µM (inactive) and the GI50 (SF-295) was > 100 µM (inactive). The GI50 (SN12C) was 79.4 µM (inactive), the GI50 (MCF7) was 69.8 µM (inactive) and the GI50 (T47D) was > 100 µM (inactive). The GI50 (HCC 2998) was > 100 µM (inactive), the GI50 (UO-31) was > 100 µM (inactive) and the GI50 (OVCAR-8) was 42 µM (inactive). The GI50 (OVCAR-4) was 27.5 µM (inactive), the GI50 (SNB-75) was 85.1 µM (inactive) and the GI50 (NCI-H460) was 84.3 µM (inactive). For the same compound, the GI50 (A549) was > 100 µM (inactive), the GI50 (Hs-578T) was 45.8 µM (inactive) and the GI50 (HCT-15) was greater than 100 µM. The GI50 (OVCAR-5) was > 100 µM (inactive), the GI50 (SK-OV-3) was > 100 µM (inactive) and the GI50 (UACC-257) was 50.2 µM (inactive). For the same compound, the GI50 (SR) was 19.9 µM (inactive), the GI50 (RPMI-8226) was 27.9 µM (inactive) and the GI50 (HT-29) was 43.8 µM (inactive). The GI50 (NCI-H23) was 77.3 µM (inactive), the GI50 (MDA-MB-231) was > 100 µM (inactive) and the GI50 (NCI/ADR-RES) was > 100 µM (inactive). For the same compound, the GI50 (SNB-19) was 74.8 µM (inactive), the GI50 (KM12) was 64.9 µM (inactive) and the GI50 (786-0) was 89.9 µM (inactive). For the same compound, the GI50 (EKVX) was 64.7 µM (inactive), the GI50 (MDA-N) was 33.6 µM (inactive) and the GI50 (HCT-116) was 35.1 µM (inactive). For the same compound, the GI50 (SW-620) was 76.9 µM (inactive), the GI50 (NCI-H522) was 45.9 µM (inactive) and the GI50 (A498) was 43 µM (inactive). For the same compound, the GI50 (ACHN) was 48.3 µM (inactive), the GI50 (DU-145) was 38.2 µM (inactive) and the GI50 (COLO 205) was 75 µM (inactive). The GI50 (BT-549) was 28.8 µM (inactive), the GI50 (M14) was 77.1 µM (inactive) and the GI50 (SK-MEL-5) was 31.9 µM (inactive). For the same compound, the GI50 (SF-539) was 59.2 µM (inactive), the GI50 (HOP-62) was > 100 µM (inactive) and the GI50 (RXF 393) was > 100 µM (inactive). The GI50 (HOP-92) was 83 µM (inactive), the GI50 (MDA-MB-435) was 29.4 µM (inactive) and the GI50 (K562) was 53.3 µM (inactive). For the same compound, the GI50 (CAKI-1) was > 100 µM (inactive), the GI50 (PC-3) was 45.8 µM (inactive) and the GI50 (Malme-3M) was > 100 µM (inactive). The GI50 (NCI-H226) was 71.6 µM (inactive), the GI50 (UACC-62) was 67.6 µM (inactive) and the GI50 (SK-MEL-28) was > 100 µM (inactive). The GI50 (SF-268) was 62.7 µM (inactive), the GI50 (U-251) was 39.8 µM (inactive) and the GI50 (LOX IMVI) was 43.2 µM (inactive). For the same compound, the GI50 (IGROV-1) was > 100 µM (inactive), the GI50 (HL-60) was 21.3 µM (inactive) and the GI50 (OVCAR-3) was 48.1 µM (inactive).
